# Laboratory results reported in patent publication US5750724A, “Indolealkyl derivatives of benzodioxanmethylamine” (American Home Products Corporation, priority 1996, dated 1998).
# What was measured:
# 5-HT1A receptors = settings: European Journal of Pharmacology, 173 (1989), 189; cited from earlier work
# [1] = target: T1, 5-HT1A serotonin receptor (Rattus norvegicus, UniProt P19327); assay: displacement of [3H] 8-OHDPAT (dipropylaminotetralin) from the 5-HT1A serotonin receptor (Hall et al.); type: binding; settings: read-out: 5-HT1A Receptor Affinity IC50
# T1 construct: following the procedure of Hall et al., J. Neurochem; 44, 1685 (1985); from tissue
# T1 sequence (P19327 1-422): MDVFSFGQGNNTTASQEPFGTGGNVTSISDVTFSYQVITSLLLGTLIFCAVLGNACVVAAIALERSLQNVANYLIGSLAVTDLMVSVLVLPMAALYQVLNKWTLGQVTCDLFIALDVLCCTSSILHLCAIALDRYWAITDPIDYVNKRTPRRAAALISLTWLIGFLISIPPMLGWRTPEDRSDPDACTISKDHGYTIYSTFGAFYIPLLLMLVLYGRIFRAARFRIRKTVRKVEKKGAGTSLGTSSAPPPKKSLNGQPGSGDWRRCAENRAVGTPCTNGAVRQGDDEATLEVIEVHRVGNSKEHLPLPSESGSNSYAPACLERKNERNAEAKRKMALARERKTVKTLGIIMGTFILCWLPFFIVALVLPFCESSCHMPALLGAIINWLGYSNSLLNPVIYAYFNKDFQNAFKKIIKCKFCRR
# Excerpt: High affinity for the serotonin 5-HT1A receptor was established by testing the claimed compound's ability to displace [^3 H] 8-OHDPAT (dipropylaminotetralin) from the ^5 -HT1A serotonin receptor following the procedure of Hall et al., J. Neurochem. 44, 1685 (1985). […] The anxiolytic and antidepressant activity of these agents are believed to be, at least partially, due to their 5-HT1A receptor affinity (Vander Maclen et al., Eur. J. Pharmacol. 1986, 129 (1-2) […] and Lucki, J. Clin. Psychiat. 1992, 52, 24-31).
# dopamine D2 receptor = target: T2, dopamine D2 receptor (Rattus norvegicus, UniProt P61169); assay: dopamine D2 receptor affinity, 3H-quinpirole, homogenized rat striatal brain tissue (modified Seemen and Schaus); type: binding
# T2 construct: homogenized rat striatal brain tissue; from tissue; host or cells: rat striatum homogenate
# Procedure: Affinity for the dopamine D2 receptor was established by a modification of the standard experimental test procedure of Seemen and Schaus, European Journal of Pharmacology 203: 105-109, 1991, wherein homogenized rat striatal brain tissue is incubated with ^3 H-quinpirole and various concentrations of test compound, filtered and washed and counted in a Betaplate scintillation counter.
# [2] = test system: 3H 5-hydroxytryptamine uptake; assay: inhibition of 3H 5-hydroxytryptamine uptake, crude synaptosomes from rat frontal cortex (modified Wood and Willie); type: biochemical; settings: nonspecific uptake in presence of 10 μM fluoxetine, read-out: Inhibition 5-HT Uptake IC50
# Procedure: Inhibition of ^3 H 5-hydroxytryptamine uptake was established using a modification of the procedure of Wood and Willie, J. Neurochem. 37:795, 1981. Crude synaptosomes prepared from rat frontal cortex were utilized and nonspecific uptake was defined as that occurring in the presence of excess (10 μM) fluoxetine.
# [3] = target: T1, 5-HT1A serotonin receptor; settings: reference agents; cited from earlier work
# [4] = cited from earlier work
# T2 sequence (P61169 whole entry): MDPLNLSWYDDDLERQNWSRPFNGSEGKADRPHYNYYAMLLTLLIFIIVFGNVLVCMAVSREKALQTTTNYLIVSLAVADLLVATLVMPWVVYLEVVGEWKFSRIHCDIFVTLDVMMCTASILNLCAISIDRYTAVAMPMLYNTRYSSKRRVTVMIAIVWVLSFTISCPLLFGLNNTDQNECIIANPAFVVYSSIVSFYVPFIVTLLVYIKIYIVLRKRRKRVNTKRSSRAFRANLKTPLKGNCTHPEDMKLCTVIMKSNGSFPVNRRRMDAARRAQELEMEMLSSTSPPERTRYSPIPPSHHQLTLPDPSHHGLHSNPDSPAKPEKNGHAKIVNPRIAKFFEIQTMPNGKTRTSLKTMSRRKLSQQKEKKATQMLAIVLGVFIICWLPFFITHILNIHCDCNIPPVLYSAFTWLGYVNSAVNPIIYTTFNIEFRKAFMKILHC
Structure (SMILES),IC50 [1] [nM],IC50 (dopamine D2 receptor) [nM],other results
COc1ccc2[nH]cc(CCNCC3COc4ccccc4O3)c2c1 (centres unmarked),–,–,partial agonist activity at 5-HT1A receptors (in words) (5-HT1A receptors): partial agonist activity at 5-HT1A receptors
"c1ccc2c(CCCCNC[C@H]3COc4cc5c(cc4O3)OCO5)c[nH]c2c1 [Example 1, [(6,7-Dihydro-1,3-dioxolo[4,5-g][1,4]benzodioxin-6-yl)methyl]-[4-(1H-indol-3-yl)-butyl]-amine]",5.6,116,–
"COc1ccc2c(c1)O[C@@H](CNCCCCc1c[nH]c3ccccc13)CO2 [Example 2, [4-(1H-Indol-3-yl)-butyl]-(7-methoxy-2,3-dihydro-benzo[1,4]dioxin-2-ylmethyl)amine]",5.7,82,–
"Oc1ccc2c(c1)OC(CNCCCCc1c[nH]c3ccccc13)CO2 (centres unmarked) [Example 3, 3-{[4-(1H-Indol-3-yl)-butylamino}-methyl}-2,3-dihydro-benzo[1,4]dioxin-6-ol]",6,1.3,–
"c1ccc(COc2ccc3[nH]cc(CCCNCC4COc5ccccc5O4)c3c2)cc1 (centres unmarked) [Example 4, [3-(5-Benzyloxy-1H-indol-3-yl)-propyl]-(2,3-dihydro-benzo[1,4]dioxin-2-ylmethyl)-amine]",8.05,102,–
"Oc1ccc2[nH]cc(CCCNCC3COc4ccccc4O3)c2c1 (centres unmarked) [Example 5, 3-{3-[(2,3-Dihydro-benzo[1,4]dioxin-2-ylmethyl)-amino]-propyl}-1H-indol-5-o]",0.06,6.5,IC50 [2]: 52 nM
"COc1ccc2c(c1)OC(CNCCCc1c[nH]c3ccc(O)cc13)CO2 (centres unmarked) [Example 6, 3-{3-[(7-Methoxy-2,3-dihydro-benzo[1,4]dioxin-2-ylmethyl)-amino]-propyl}-1H-indol-5-ol]",2.7,45,–
"COc1ccc2c(c1)OC(CN(C)CCCc1c[nH]c3ccc(OC)cc13)CO2 (centres unmarked) [Example 7, (7-Methoxy-2,3-dihydro-benzo[1,4]dioxin-2-ylmethyl)-[3-(5-methoxy-1H-indol-3-yl)-propyl]-methyl-amine]",6.74,1230,–
"Oc1ccc2c(c1)OC(CNCCCc1c[nH]c3ccc(O)cc13)CO2 (centres unmarked) [Example 8, 3-{3-[(7-Hydroxy-2,3-dihydro-benzo[1,4]dioxin-2-ylmethyl)-amino]-propyl}-1H-indol-5-ol]",0.35,0.61,–
"COc1ccc2c(c1)OC(CNCCCCc1c[nH]c3ccc(OC)cc13)CO2 (centres unmarked) [Example 9, (7-Methoxy-2,3-dihydro-benzo[1,4]dioxin-2-ylmethyl)-[4-(5-methoxy-1 H-indol-3-yl)-butyl]-amine]",0.8,64,IC50 [2]: 738 nM
"COc1ccc2[nH]cc(CCCCNCC3COc4ccc(O)cc4O3)c2c1 (centres unmarked) [Example 10, 3-{[4-(5-Methoxy-1H-indol-3-yl)-butylamino]methyl}-2,3-dihydrobenzo[1,4]dioxin-6-ol]",1.94,0.39,–
"CS(=O)(=O)Nc1ccc2c(c1)OC(CNCCCCc1c[nH]c3ccccc13)CO2 (centres unmarked) [Example 11, N-(3-{[4-(1 H-Indol-3-yl)-butylamino]-methyl}-2,3-dihydro-benzo[1,4]dioxin-6-yl)-methanesulfonamide]",3.89,2.37,IC50 [2]: 13.5 nM
"COc1ccc2[nH]cc(CCCNCC3COc4ccccc4O3)c2c1 (centres unmarked) [Example 12, (2.3-Dihydro-benzo[1,4]dioxin-2-ylmethyl)-[3-(5-methoxy-1H-indol-3-yl)-propyl]-amine]",0.1,1.55,IC50 [2]: 2380 nM
"Fc1ccc2[nH]cc(CCCNCC3COc4ccccc4O3)c2c1 (centres unmarked) [Example 13, (2,3-Dihydro-benzo[1,4]dioxin-2-ylmethyl)-[3-(5-fluoro-1H-indol-3-yl)-propyl]-amine]",0.12,8.13,IC50 [2]: 154 nM
"COc1ccc2[nH]cc(CCCCNCC3COc4ccc(NS(C)(=O)=O)cc4O3)c2c1 (centres unmarked) [Example 14, N-(3-{[4-(5-Methoxy-1 H-indol-3-yl)-butylamino]-methyl}-2,3-dihydrobenzo[1,4]dioxin-6-yl)-methanesulfonamide]",0.81,4.75,–
"Oc1ccc2c(c1)OC(CNCCCc1c[nH]c3ccccc13)CO2 (centres unmarked) [Example 15, 3-{[4-(1H-Indol-3-yl)-propylamino]-methyl}-2,3-dihydro-benzo[1,4]dioxin-6-ol]",4.85,0.3,–

Structure (SMILES),IC50 [1] [nM],IC50 (dopamine D2 receptor) [nM],other results
"c1ccc2c(c1)OCC(CNCCCCc1c[nH]c3ccccc13)O2 (centres unmarked) [Example 16, (2,3-Dihydro-benzo[1,4]dioxin-2-ylmethyl)-[4-(1H-indol-3-yl)-butyl]-amine]",4.86,13.6,–
"c1ccc2c(c1)OCC(CNCCCc1c[nH]c3ccccc13)O2 (centres unmarked) [Example 17, (2.3-Dihydro-benzo[1,4]dioxin-2-ylmethyl)-[3-(1H-indol-3-yl)-propyl]-amine]",3.77,3.5,–
"Fc1ccc2[nH]cc(CCCCNCC3COc4ccccc4O3)c2c1 (centres unmarked) [Example 18, (2,3-Dihydro-benzo[1,4]dioxin-2-ylmethyl)-[4-(5-fluoro-1H-indol-3-yl)-butyl]-amine]",3.95,18.4,–
"COc1ccc2c(c1)OC(CNCCCCc1c[nH]c3ccc(F)cc13)CO2 (centres unmarked) [Example 19, [4-(5-Fluoro-1H-indole-3-yl)-butyl]-(7-methoxy-2,3-dihydro-benzo[1,4]dioxin-2-ylmethyl)-amine]",5.5,72,–
"Oc1ccc2c(c1)O[C@@H](CNCCCc1c[nH]c3ccccc13)CO2 [Example 20, 3-{[3-(1H-Indol-3-yl)-propylamino]methyl}-2,3-dihydro-benzo[1,4]dioxin-6-ol]",5.9,0.13,–
"CS(=O)(=O)Nc1ccc2c(c1)O[C@@H](CNCCCc1c[nH]c3ccccc13)CO2 [Example 21, N-(3-{[3-(1H-Indol-3-yl)-propylamino]methyl}-2,3-dihydro-benzo[1,4]dioxin-6-yl)-methanesulfonamide]",5.8,0.76,–
"Cn1cc(CCCCNCC2COc3ccccc3O2)c2cc(F)ccc21 (centres unmarked) [Example 22, (2,3-Dihydro-benzo[1,4]dioxin-2-ylmethyl)-{4-[5-fluoro-1-methyl-1H-(indole-3-yl)]-butyl}-amine]",16,49.8,–
"COc1ccc2[nH]cc(CCCCNCC3COc4ccccc4O3)c2c1 (centres unmarked) [Example 23, (2,3-Dihydro-benzo[1,4]dioxin-2-ylmethyl)-[4-(5-methoxy-1H-indol-3-yl)-butyl]-amine]",0.56,6.63,–
"Cn1cc(CCCNCC2COc3ccc(NS(C)(=O)=O)cc3O2)c2ccccc21 (centres unmarked) [Example 24, N-(3-{[3-(1-Methyl-1H-indol-3-yl)-propylamino]-methyl}-2,3-dihydrobenzo[1,4]dioxin-6-yl)-methanesulfonamide]",9.29,20.4,–
O=C1CC2(CCCC2)CC(=O)N1CCCCN1CCN(c2ncccn2)CC1 [buspirone],–,–,affinity for the 5-HT1A serotonin receptor subtype (in words) [3]: potent affinity
"CNCCC(Oc1ccc(C(F)(F)F)cc1)c1ccccc1 (centres unmarked) [fluoxetine, reference compound]",–,–,IC50 [2]: 71 nM
CC1(C)CC(=O)N(CCCCN2CCN(c3ncccn3)CC2)C(=O)C1 [gepirone],–,–,affinity for the 5-HT1A serotonin receptor subtype (in words) [3]: potent affinity; anxiolytic and antidepressant activity in clinical trials (in words) [4]: demonstrated both anxiolytic and antidepressant activity in clinical trials
"CN(C)CCCN1c2ccccc2CCc2ccccc21 [imipramine, reference compound]",–,–,IC50 [2]: 120 nM
O=C1c2ccccc2S(=O)(=O)N1CCCCN1CCN(c2ncccn2)CC1 [ipsapirone],–,–,affinity for the 5-HT1A serotonin receptor subtype (in words) [3]: potent affinity; anxiolytic and antidepressant activity in clinical trials (in words) [4]: demonstrated both anxiolytic and antidepressant activity in clinical trials
"CN(C)C/C=C(/c1ccc(Br)cc1)c1cccnc1 [zimelidine, reference compound]",–,–,IC50 [2]: 240 nM
